In patent US5130300A, “Method for enhancing growth of mammary parenchyma” (Monsanto Company, priority 1987, dated 1992):

What was measured:
[1] = tested on: Quarter-Udders in Pregnant Beef Cows; test: Intramammary infusion of hEGF, quarter-udder weights and DNA (Examples 7-8); format: in vivo, cross-bred beef cows
Excerpt: 24 pregnant, non-lactating, cross-bred beef cows within their last 40-80 days of gestation were randomly divided into 3 treatment groups with 8 animals in each group.

[2] = tested on: pregnant Holstein heifers; test: Intramammary infusion until parturition, milk production in first 105 days of lactation (Example 13); format: in vivo; conditions: one animal, 250 micrograms hEGF every third day only until 15 days before parturition
Description: 48 pregnant Holstein heifers within their last 40 days (approximately) of gestation were housed in a free-stall facility, fed a ration of alfalfa hay and pelleted concentrate, and administered 10 ml of an excipient into each quarter-udder by intramammary infusion through the streak canal every third day until parturition with the exception of one animal which was treated with human EGF as described in this Example only until 15 days before parturition. Infusions were carried out using a 3.2 centimeter long, approximately 12 gauge, blunt-tipped plastic teat infusion cannula obtained from Jorgensen Laboratories, Loveland, Colo. […] In each animal, all 4 quarter-udders received the same treatment. Each udder was sprayed with 70% ethanol and wiped dry prior to treatment and dipped with an iodine solution following treatment. At parturition, 4 animals from each treatment group were sacrificed and their mammary glands were removed for analysis. The other 8 animals from each treatment group were milked normally each a.m. and p.m. for the first 105 days of lactation.

[3] = tested on: Quarter-Udders in Pregnant Beef Cows; test: Intramammary infusion of hEGF or mEGF, quarter-udder weights and DNA (Examples 1-2); format: in vivo, cross-bred beef cows; conditions: 25 micrograms per infusion, days 1,3,5,7,9, Freund's emulsion
Description: 12 pregnant, non-lactating, cross-bred beef cows within their last 40-80 days of gestation were housed in a free-stall facility, fed a ration of alfalfa hay and pelleted concentrate, and administered 10 ml of an excipient (Freund's Incomplete Adjuvant emulsified with an equal volume of 0.9% sterile saline) into each quarter-udder by intramammary infusion through the streak canal on days 1, 3, 5, 7 and 9 of this study. Infusions were carried out using a 3.2 centimeter long, approximately 12 gauge, blunt-tipped plastic teat infusion cannula obtained from Jorgensen Laboratories, Loveland, Colo. Because front and rear udder halves are not of equal size, treatment vs. control comparisons were made between laterally opposite quarters, i.e., front right vs. front left and rear right vs. rear left. Treatments were randomly assigned to right or left udder-halves, with the contralateral half serving as its control. […] (the other 6 animals).
Prior to treatment, each animal was teatdipped for 3 consecutive days and each teat was pre-cleaned with 70% ethanol in water on the day of treatment. On day 14 the cows were sacrificed and their mammary glands excised. Each udder (milked out if necessary) was skinned, divided along the median suspensory ligament and then into front right, front left, rear right and rear left udder quarters. Each quarter-udder was ground, a representative 200 gm sample was homogenized with 4 times its volume of water, and the total homogenate volume of each was measured.
To determine dry weight of each quarter-udder, three 10 ml aliquots of a 1:5 diluted homogenate were placed in pre-weighed pans, dried overnight at 60° and then dried and weighed to a consistent value.
To determine dry fat-free tissue weight of each quarter-udder, three 5 ml aliquots of the undiluted homogenate were extracted by the method of Anderson, 41 J. Anim. Sci. 118 (1975) except that samples were placed in pre-weighed 25×150 mm glass centrifuge tubes and extracted overnight with 10 ml ethanol:ether (3:1), then centrifuged (5 min at 500 rpm) and the supernatant aspirated; an additional 10 ml aliquot of ethanol:ether was added for a second extraction; and the sample was dried under nitrogen until a consistent value was obtained.
DNA in each quarter-udder was determined by the method of Burton, 12B Methods in Enzymol. 163-66 (1968) using an assay solution of 15% trichloroacetic acid (TCA) in 2N HCl. In these determinations, aliquots of gland homogenate were diluted 1:5 with water and rehomogenized. Using triplicate 0.25 ml or 0.5 ml aliquots of these homogenates, each aliquot was mixed with 2 ml of the assay solution. After 30 min, the samples were centrifuged for 10 min at 3000 rpm and the resulting pellets were washed with 2 ml of a 10% solution of TCA in distilled water. After recentrifugation, the resulting pellets were disrupted in 2 ml of 0.5N perchloric acid and heated for 30 min at 70° to extract DNA. Samples were centrifuged and 1 ml of each resulting supernatant was placed in a 12×75 mm tube. After addition of 2 ml of a solution of 1.5 g diphenylamine and 1.5 ml H2 SO4 in 100 ml glacial acetic acid (and 0.1 ml of 1.6% aqueous acetaldehyde per 20 ml reagent just prior to use), the samples were vortexed and incubated overnight at 27°. Calf thymus DNA was the standard.

[4] = tested on: Quarter-Udders in Pregnant Beef Cows; test: Intramammary infusion of hEGF, quarter-udder weights and DNA (Examples 3-6); format: in vivo, cross-bred beef cows; conditions: for DNA, % Increase, (A-B)/B / DNA, Mean Increase (A-B) / Dry Fat-Free Weight, % Increase, (A-B)/B / Dry Fat-Free Weight, Mean Increase (A-B) / Dry Weight, % Increase, (A-B)/B / Dry Weight, Mean Increase (A-B) / Wet Weight, % Increase, (A-B)/B / Wet Weight, Mean Increase (A-B): B = excipient only
Excerpt: 24 pregnant, non-lactating, cross-bred beef cows within their last 40-80 days of gestation were randomly divided into 4 treatment groups with 6 animals in each group.

[5] = Group 1: total of 125 micrograms hEGF
[6] = Group 1: total of 125 micrograms hEGF, B = excipient only
[7] = Group 2: total of 1.25 milligrams hEGF
[8] = Group 2: total of 1.25 milligrams hEGF, B = excipient only
[9] = B = opposite quarter, excipient only
[10] = Group 1: total of 125 micrograms hEGF in Freund's emulsion
[11] = Group 2: total of 125 micrograms hEGF in sesame emulsion
[12] = Group 3: total of 12.5 micrograms hEGF in sesame emulsion
[13] = Group 4: total of 1.25 milligrams hEGF in sesame emulsion

## hEGF: human EGF from G. D. Searle & Co., prepared by expression of recombinant DNA, purity above 90%
[1]; [5]
  DNA, Treatment Mean: 396.9 mg
  Dry Fat-Free Weight, Treatment Mean: 52.8 g
  Dry Weight, Treatment Mean: 113.0 g
  Wet Weight, Treatment Mean: 363.0 g
[1]; [6]
  DNA, % Increase, (A-B)/B: 10.6%
  DNA, Mean Increase (A-B): 38.0 mg
  Dry Fat-Free Weight, % Increase, (A-B)/B: 4.1%
  Dry Fat-Free Weight, Mean Increase (A-B): 2.1 g
  Dry Weight, % Increase, (A-B)/B: 3.0%
  Dry Weight, Mean Increase (A-B): 3.3 g
  Wet Weight, % Increase, (A-B)/B: 1.5%
[1]; [7]
  DNA, Treatment Mean: 344.0 mg
  Dry Fat-Free Weight, Treatment Mean: 63.8 g
  Wet Weight, Treatment Mean: 392.5 g
[1]; [8]
  Dry Fat-Free Weight, % Increase, (A-B)/B: 3.9%
  Dry Fat-Free Weight, Mean Increase (A-B): 2.4 g
  Dry Weight, % Increase, (A-B)/B: 5.3%
  Dry Weight, Mean Increase (A-B): 6.3 g
  Wet Weight, % Increase, (A-B)/B: 1.1%
  Wet Weight, Mean Increase (A-B): 4.3 g
[2]
  Average milk production more than average of the 8 control cows: 9.6 kg milk/day
  Average milk production more than average of the 8 control cows, percent: 34.8%
[3]; [9]
  DNA, Mean Increase (A-B): 84.5 mg
  Dry Fat-Free Weight, Mean Increase (A-B): 4.9 g
  Dry Weight, % Increase, (A-B)/B: 7.7%
  Wet Weight, Mean Increase (A-B): 32.6 g
[3]; day 14
  DNA, Treatment Mean: 794.5 mg
  Dry Fat-Free Weight, Treatment Mean: 63.2 g
  Dry Weight, Treatment Mean: 120.0 g
  Wet Weight, Treatment Mean: 389.9 g
[3]; vs excipient-only quarter
  DNA, Avg % Increase/Animal: 14.8%
  Dry Fat-Free Weight, Avg % Increase/Animal: 16.1%
  Wet Weight, Avg % Increase/Animal: 12.9%
[4]; [10]
  DNA, Avg % Increase/Animal: 23.0%
  DNA, Treatment Mean: 723.0 mg
  Dry Fat-Free Weight, Avg % Increase/Animal: 8.3%
  Dry Fat-Free Weight, Treatment Mean: 60.3 g
  Dry Weight, Treatment Mean: 107.2 g
  Wet Weight, Treatment Mean: 364.9 g
  DNA, % Increase, (A-B)/B: 14.9%
  DNA, Mean Increase (A-B): 94.0 mg
  Dry Fat-Free Weight, % Increase, (A-B)/B: 6.2%
  Dry Fat-Free Weight, Mean Increase (A-B): 3.5 g
  Dry Weight, % Increase, (A-B)/B: 6.1%
  Dry Weight, Mean Increase (A-B): 6.2 g
  Wet Weight, % Increase, (A-B)/B: 4.4%
  Wet Weight, Mean Increase (A-B): 15.4 g
[4]; [11]
  DNA, Avg % Increase/Animal: 70.0%
  DNA, Treatment Mean: 995.0 mg
  Dry Fat-Free Weight, Avg % Increase/Animal: 15.9%
  Dry Fat-Free Weight, Treatment Mean: 71.0 g
  Dry Weight, Avg % Increase/Animal: 20.2%
  Wet Weight, Avg % Increase/Animal: 10.4%
  Wet Weight, Treatment Mean: 370.2 g
  DNA, % Increase, (A-B)/B: 41.5%
  DNA, Mean Increase (A-B): 292.0 mg
  Dry Fat-Free Weight, % Increase, (A-B)/B: 3.2%
  Dry Fat-Free Weight, Mean Increase (A-B): 2.2 g
  Dry Weight, % Increase, (A-B)/B: 9.9%
  Dry Weight, Mean Increase (A-B): 11.0 g
  Wet Weight, % Increase, (A-B)/B: 3.9%
  Wet Weight, Mean Increase (A-B): 14.0 g
[4]; [12]
  DNA, Treatment Mean: 867.6 mg
  Dry Fat-Free Weight, Avg % Increase/Animal: 16.3%
  Dry Fat-Free Weight, Treatment Mean: 79.4 g
  Dry Weight, Avg % Increase/Animal: 7.8%
  Dry Weight, Treatment Mean: 132.4 g
  Wet Weight, Avg % Increase/Animal: 0.6%
  Wet Weight, Treatment Mean: 397.8 g
  Dry Fat-Free Weight, Mean Increase (A-B): 6.7 g
  Dry Weight, % Increase, (A-B)/B: 4.2%
  Dry Weight, Mean Increase (A-B): 5.4 g
[4]; [13]
  DNA, Avg % Increase/Animal: 1.6%
  DNA, Treatment Mean: 733.2 mg
  Dry Fat-Free Weight, Treatment Mean: 81.7 g
  Dry Weight, Treatment Mean: 131.5 g
  Wet Weight, Avg % Increase/Animal: 9.9%
  Wet Weight, Treatment Mean: 391.9 g
  DNA, % Increase, (A-B)/B: 0.5%
  DNA, Mean Increase (A-B): 4.0 mg
  Dry Fat-Free Weight, Mean Increase (A-B): 6.6 g
  Dry Weight, Mean Increase (A-B): 13.6 g
  Wet Weight, Mean Increase (A-B): 31.7 g
